Data reported in patent US8460906B2, “Immobilized product tolerant microorganisms” (Cobalt Technologies, Inc., priority 2008, dated 2013).
Read-outs that look alike come from different tables or passages of the source.

How the values were obtained:
[1] = test system: mutants of C. saccharobutylicum strain Co-7449; conditions: suspension culture, colonies from 5% butanol RCM plates
[2] = test system: Co-5673; conditions: liquid P2+4% Xylose, 24 and 96 hr time points
Procedure: (§1) The next day, the OD600 of the seed train tubes was measured. […] Control tubes without inoculum were also prepared. Tubes were incubated in an anaerobic hood.
(§2) After 1 day and 3-4 days, the OD600 of liquid cultures was measured. Plates were examined for growth. […] OD600 at start (0 hr) was based on a 1:20 inoculation of the starter cultures.

[3] = test system: Co-7449; conditions: liquid P2+4% Xylose, 24 and 96 hr time points
Procedure: as §1, §2

[4] = test system: Co-0124; conditions: liquid P2+4% Xylose, 24 and 96 hr time points
Procedure: as §1, §2

[5] = test system: environmental sample (isolate)
Procedure: An environmental sample (isolate) is obtained. The isolate is plated on a set of identical plates containing a nutrient agar.

[6] = test system: mutants of C. saccharobutylicum strain Co-7449
Procedure: (§3) In some embodiments, solvent tolerant microorganisms are mutagenized and selected for increased solvent tolerance on solid support. In some embodiments, solvent tolerant mutants can be used for either solvent or organic acid production. […] In some embodiments of the present invention, solvent tolerance is a relative value that is measured by comparing the growth ability of a mutant microorganism on a semi-solid or solid support to the growth ability of the non-mutant parent microorganism on the same semi-solid or solid support. Typically, the semi-solid or solid support comprises a growth media and a specified concentration of a solvent that is usually measured on a volume to volume (v/v) basis. Generally, multiple containers, usually petri dishes, are filled with semi-solid or solid support representing a range of solvent concentration. […] The highest concentration at which colonies still form represents the solvent tolerance of the microorganism. An alternative solvent tolerance test method is to overlay the non-solvent support with a solution containing a specified concentration of a solvent.
Clostridium saccharobutylicum strain Co-7449 was grown in yeast extract medium (YEM) to an approximate OD600 of 3 and was treated with a final concentration of 50 μg/ml N-methyl-N′-nitro-N-nitrosoguanidine (MNNG) for 15 minutes. Cells were twice washed with glucose-free YEM and plated on Reinforced Clostridium Medium (RCM) at 10^−3 and 10^−4 dilution to recover 3000-4000 colonies.

[7] = test system: Clostridium saccharobutylicum strain Co-7449; conditions: for highest butanol concentration of plates showing growth: solid media P2+4% Xylose
Procedure: as §3
(§4) On the first day, a seed train of a strain to be investigated was started in 5 ml cultures of P2+4% Xylose in the anaerobic hood. A 1-L volume of sterile P2 medium containing 4% Xylose and agar was prepared and place on hot plate. […] The solution was mixed well and plates were poured in a sterile environment. After the plates were solidified, they were transferred to the anaerobic hood and parafilmed immediately prior to storage overnight.
as §1, §2

[8] = test system: Co-5673; conditions: solid media P2+4% Xylose
Procedure: as §4, §1, §2

[9] = test system: Co-0124; conditions: solid media P2+4% Xylose
Procedure: as §4, §1, §2

butanol
growth in YEM with 1.2% butanol added to the broth [1]: did not grow | highest butanol concentration at which OD600 increased [2]: 1.4 % (v/v) | highest butanol concentration at which OD600 increased [3]: 1.4 % (v/v) | highest butanol concentration at which OD600 increased [4]: 1.6 % (v/v) | butanol concentration the adapted strain grows in ([5]; after 20 passages on solid support with increasing butanol): 2.5% | highest butanol concentration of plates with colonies ([5]; unadapted isolate, no growth at 1.8% or 2.0%): 1.6% | tolerance for butanol compared to the parent Co-7449 strain ([6]; mutants grown on a solid support): at least a two-fold higher tolerance | growth on 5% butanol plates after culture in YEM without butanol ([6]; samples removed from liquid YEM, plated on 5% butanol plates): failed to grow | relative solvent tolerance of the mutants versus non-mutant parent strain ([6]; {}): at least 225% | butanol tolerance result on solid media ([7]; 24 hr, separate experiment): 2.1% | highest butanol concentration of plates showing growth ([7]; 24 hour): 0% | highest butanol concentration of plates showing growth ([7]; 96 hour): 2.2% | highest butanol concentration of plates showing growth ([8]; 24 hour): 2.2% | highest butanol concentration of plates showing growth ([8]; 96 hour): 2.2% | highest butanol concentration of plates showing growth ([9]; 24 hour): 2.2% | highest butanol concentration of plates showing growth ([9]; 96 hour): 2.3%
